Values of other authors as cited in US11464797B2, “Use of vitamin composition in preparing drug for preventing, treating, or delaying Alzheimer's disease” (Zensun (Shanghai) Science & Technology, Co., Ltd., priority 2017, dated 2022).

How the values were obtained:
[1] = tested on: ATP level in CA1 area; settings: after 10 min of hypoxia in rats, magnesium ion treated brain slices; untreated 16% of normal
[2] = tested on: patients with mild cognitive impairment (MCI); settings: long-term intake (6-48 months)

| Compound | ATP level, of normal brain slices [1] [%] | cognitive function [2] |
| --- | --- | --- |
| [Mg+2] [magnesium ion, magnesium] | 32 | – |
| vitamin E | – | effectively improve cognitive function |
